In PMC9437101, “Curcumin-based-fluorescent probes targeting ALDH1A3 as a promising tool for glioblastoma precision surgery and early diagnosis” (Communications Biology, 2022):
Where “and” joins values, the source holds several entries; their conditions need not be identical. Equal entries are not always repeated.

What was measured:
[1] = system: GL261 glioblastoma in left striatum; experiment: In vivo labeling of orthotopic GL261 glioblastoma after i.p. injection; set-up: species or system mice; conditions: 6 days after implantation, 6 h after injection, probe 10 18 μg, probe 11 5 μg
Source text: We used in vitro and in vivo cells from a mouse high grade glioma cell line, GL261[56]. Briefly, ten 2- to 3-month-old female C57BlC mice were stereotactically implanted under deep general anesthesia (isoflurane supplemented with nitrous oxide) with 1 × 10^5 GL261 glioblastoma cells. The cells were stereotactically inoculated through a burr hole by a Hamilton syringe into the left striatum (coordinates: 1 mm anteroposterior and 1 mm lateral from bregma, at a depth of 3 mm). All experimental procedures were conducted in accordance with the European Communities Council Directive of the 24th of November 1986 (86/609 EEC), with the Recommendation 18/06/2007, Dir. 2010/63/UE and with the Italian law for care and use of experimental animals (DL116/92) and were approved by the Italian Ministry of Health (prot. E669C.15) and by the Bioethical Committee of the University of Turin. All animals were housed under a 12-h light-dark cycle in an environmentally controlled room. All experiments were designed to minimize the numbers of animals used and their discomfort. In each experiment, animals with tumors were allocated to two groups and i.p. injected with probe 10 (18 μg) or probe 11 (5 μg). […] Quantitative and phenotypic evaluations were made on the images acquired with a Leica TCS SP5 confocal microscope. […]

[2] = system: 4T1 murine mammary carcinoma; experiment: Cell viability (MTT assay); format: cell-based; conditions: 10uM, 72 h
Description: (§1) In total, 10 × 10^5 U87MG human glioblastoma, patient-derived glioma cells 3054 and 3060, HEK293T human embryonic kidney, 4T1 murine mammary carcinoma, human fetal astrocytes cell lines were plated in their respective medium and treated for 72 h with our fluorescent probe 10 and 11, solubilized in DMSO in a final concentration of […]. We treated controls with DMSO in the same final concentration and we compared the viability of each treatment to controls. The viability of cells was measured using the 3-(4,5-dimethylthiazol-2-yl)-2,5-diphenyltetrazolium assay (MTT assay)[23].

[3] = Cell viability (MTT assay); format: cell-based, murine; conditions: mouse, 4T1 mammary carcinoma cells
Description: as §1

[4] = system: patient-derived glioma cell 3054; experiment: Fluorescent microscopy of probe in cells; format: cell-based, human; conditions: 10 µM
[5] = system: patient-derived glioma cell 3060; experiment: Fluorescent microscopy of probe in cells; format: cell-based, human; conditions: 10 µM
HEK293T cells = experiment: Fluorescent microscopy of probe in cells; format: cell-based, human; conditions: 10 µM, 2 h (Fig. 5g)
Description: In total, 20,000 cells/ml of U87MG, HEK293T, hASTRO and 4T1 were seeded onto glass cover slips in 24-well plates. The cells incubated at 37 °C in a 5% CO2 atmosphere overnight. Cells were washed with 1 ml of PBS buffer two times, then a 10 μM solution of probes was added to each well for 2 h. For nuclei staining, 1 µg/ml of DAPI was added the last 15 min of treatment. The cover slips were removed and washed with PBS buffer, and fixed with 0.5 ml of 4% formaldehyde solution for 10 min. The cover slips were washed with 1 ml of PBS, then slides were prepared using Mounting Media (Merck Life Science). Fluorescence images were acquired using a Leica THUNDER Imager 3D Live Cell (Leica Microsystems, Wetzlar, Germany) microscope equipped with an S Fluor 40×/1.3 objective using the LAS X software.

[6] = system: patient-derived glioma cells 3060; experiment: Cell viability (MTT assay); format: cell-based, human; conditions: 3060; 10uM, 72 h
Description: as §1

[7] = system: HEK293T human embryonic kidney; experiment: Cell viability (MTT assay); format: cell-based; conditions: 10uM, 72 h
Description: as §1

U87MG human glioblastoma = experiment: Cell viability (MTT assay); format: cell-based; conditions: 10uM, 72 h
Description: as §1

[8] = system: patient-derived glioma cells 3054; experiment: Cell viability (MTT assay); format: cell-based, human; conditions: 3054; 10uM, 72 h
Description: as §1

human fetal astrocytes = experiment: Cell viability (MTT assay); format: cell-based; conditions: hASTRO; 10uM, 72 h
Description: as §1

[9] = Cell viability (MTT assay); format: cell-based, human; conditions: human
Description: as §1

Row | SMILES | labelling of the growing tumor in vivo [1] | % cell viability [2] | viability at 72 h, 10 µM [3] | fluorescence in cells ([4]; 2 h) | If ROI ([4]; 3054, 2 h (Fig. 5g)) | fluorescence in cells ([5]; 2 h) | If ROI ([5]; 3060, 2 h (Fig. 5g)) | If ROI (HEK293T cells) | % cell viability [6] | % cell viability [7] | % cell viability (U87MG human glioblastoma) | % cell viability [8] | % cell viability (human fetal astrocytes) | viability at 72 h, 10 µM ([9]; HEK293T embryonic kidney cells) | viability at 72 h, 10 µM ([9]; U87MG glioblastoma cells) | viability at 72 h, 10 µM ([9]; human fetal astrocytes, hASTRO) | viability at 72 h, 10 µM ([9]; patient-derived glioma cells 3054, 3054) | viability at 72 h, 10 µM ([9]; patient-derived glioma cells 3060, 3060)
1 | CCOC(=O)Cn1cc(COc2ccc(/C=C/C(=O)/C=C(O)/C=C/c3ccc(O)c(OC)c3)cc2OC)nn1 [Probe 11] | does not penetrate to any appreciable level the tumor cells in vivo | – | – | – | – | – | – | – | – | – | – | – | – | – | – | – | – | –
2 | COc1cc(/C=C/C(O)=C/C(=O)/C=C/c2ccc(OCc3cn(CCOc4ccc(C=O)cc4)nn3)c(OC)c2)ccc1O [Probe 10] | only Probe 10 was able to selectively label the growing tumor | 86.9788% and 85.5694% and 83.5736% and 83.6921% and 86.8788% and 85.6693% and 83.8736% | 83.6% | can determine fluorescence | 223.52 a.u. and 222.87 a.u. and 254.268 a.u. and 245.65 a.u. and 230.548 a.u. | can determine fluorescence | 254.68 a.u. and 232.45 a.u. and 200.36 a.u. and 210.52 a.u. and 200.45 a.u. | 64.441 a.u. and 43.961 a.u. and 59.771 a.u. and 72.091 a.u. and 46.461 a.u. | 90.8745% and 90.3258% and 91.3365% and 91.3478% and 90.9745% and 90.4258% and 91.2365% | 84.6125% and 86.4467% and 91.2307% and 96.8963% and 84.5125% and 86.3467% and 91.1307% | 87.4968% and 85.4873% and 86.3577% and 86.8785% and 87.5968% and 85.3873% and 86.4577% | 92.2458% and 92.6485% and 92.3652% and 91.8745% and 92.3458% and 92.5485% and 92.2652% | 80.9182% and 84.1614% and 88.5188% and 85.4535% and 80.8182% and 84.0614% and 88.4188% | 96.8% | 86.8% | 85.3% | 91.4% | 91.2%
